{
  "source": "paper PMC5762315",
  "about": "“Inhibition of polo-like kinase 4 (PLK4): a new therapeutic option for rhabdoid tumors and pediatric medulloblastoma” (Oncotarget, 2017)",
  "assay_in_all_cases": "LanthaScreen Eu Kinase Binding Assay, panel of 486 biochemical kinase assays",
  "key": {"[1]": {"target": "various kinases (Homo sapiens, UniProt Q92918)", "conditions": "MAP4K1 (HPK1)"}, "[2]": {"target": "various kinases (Homo sapiens, UniProt Q13163)", "conditions": "MAP2K5 (MEK5)"}, "[3]": {"target": "various kinases (Homo sapiens, UniProt P00519, H396P)", "conditions": "ABL1 H396P"}, "[4]": {"target": "various kinases (Homo sapiens, UniProt Q8NI60)", "sequence (Q8NI60 163-647)": "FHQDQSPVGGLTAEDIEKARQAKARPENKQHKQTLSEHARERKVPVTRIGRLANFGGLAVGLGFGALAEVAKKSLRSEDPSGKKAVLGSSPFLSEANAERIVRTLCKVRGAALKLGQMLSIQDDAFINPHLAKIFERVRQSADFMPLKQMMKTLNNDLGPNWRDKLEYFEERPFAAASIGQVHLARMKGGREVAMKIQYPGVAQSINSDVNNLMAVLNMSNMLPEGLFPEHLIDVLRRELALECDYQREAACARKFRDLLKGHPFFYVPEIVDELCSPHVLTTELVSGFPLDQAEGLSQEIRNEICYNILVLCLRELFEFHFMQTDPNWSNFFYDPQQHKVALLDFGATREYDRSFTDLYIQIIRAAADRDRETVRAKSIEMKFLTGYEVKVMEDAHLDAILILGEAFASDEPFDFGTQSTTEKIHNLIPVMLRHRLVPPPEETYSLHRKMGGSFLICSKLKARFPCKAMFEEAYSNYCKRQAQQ", "conditions": "ADCK3"}, "[5]": {"target": "various kinases (Homo sapiens, UniProt Q9Y2H1)", "sequence (Q9Y2H1 whole entry)": "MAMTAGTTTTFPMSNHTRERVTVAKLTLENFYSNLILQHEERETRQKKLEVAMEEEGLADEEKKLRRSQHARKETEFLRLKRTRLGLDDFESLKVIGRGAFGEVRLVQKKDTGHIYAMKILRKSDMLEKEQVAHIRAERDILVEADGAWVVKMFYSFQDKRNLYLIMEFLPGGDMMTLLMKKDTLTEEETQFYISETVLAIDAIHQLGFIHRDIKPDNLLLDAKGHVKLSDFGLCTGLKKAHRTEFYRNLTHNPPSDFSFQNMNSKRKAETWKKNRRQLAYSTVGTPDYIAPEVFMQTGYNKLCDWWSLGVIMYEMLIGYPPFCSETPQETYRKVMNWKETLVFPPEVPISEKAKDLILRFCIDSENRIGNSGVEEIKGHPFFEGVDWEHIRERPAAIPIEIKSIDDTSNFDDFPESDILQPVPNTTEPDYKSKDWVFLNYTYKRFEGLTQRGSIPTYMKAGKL", "conditions": "kinase STK38L (NDR2); LanthaScreen Binding"}, "[6]": {"target": "various kinases (Homo sapiens, UniProt Q8NEV4)", "conditions": "MYO3A (MYO3 alpha)"}, "[7]": {"target": "various kinases (Homo sapiens, UniProt Q15208)", "sequence (Q15208 whole entry)": "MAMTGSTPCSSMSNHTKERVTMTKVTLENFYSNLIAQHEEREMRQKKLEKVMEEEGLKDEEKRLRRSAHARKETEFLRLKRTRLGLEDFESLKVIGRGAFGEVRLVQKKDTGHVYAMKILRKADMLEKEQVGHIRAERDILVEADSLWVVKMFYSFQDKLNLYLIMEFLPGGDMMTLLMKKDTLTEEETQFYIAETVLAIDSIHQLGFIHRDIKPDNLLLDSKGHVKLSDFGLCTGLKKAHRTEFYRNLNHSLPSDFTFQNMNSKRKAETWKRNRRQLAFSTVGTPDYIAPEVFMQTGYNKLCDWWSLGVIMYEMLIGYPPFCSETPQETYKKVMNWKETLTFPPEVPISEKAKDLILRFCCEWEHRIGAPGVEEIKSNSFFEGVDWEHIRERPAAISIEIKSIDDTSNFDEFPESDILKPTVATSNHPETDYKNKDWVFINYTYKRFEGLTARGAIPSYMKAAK", "conditions": "kinase STK38 (NDR); LanthaScreen Binding"}, "[8]": {"target": "T1, various kinases (Homo sapiens, UniProt Q8IYT8)", "T1 sequence (Q8IYT8 1-1036)": "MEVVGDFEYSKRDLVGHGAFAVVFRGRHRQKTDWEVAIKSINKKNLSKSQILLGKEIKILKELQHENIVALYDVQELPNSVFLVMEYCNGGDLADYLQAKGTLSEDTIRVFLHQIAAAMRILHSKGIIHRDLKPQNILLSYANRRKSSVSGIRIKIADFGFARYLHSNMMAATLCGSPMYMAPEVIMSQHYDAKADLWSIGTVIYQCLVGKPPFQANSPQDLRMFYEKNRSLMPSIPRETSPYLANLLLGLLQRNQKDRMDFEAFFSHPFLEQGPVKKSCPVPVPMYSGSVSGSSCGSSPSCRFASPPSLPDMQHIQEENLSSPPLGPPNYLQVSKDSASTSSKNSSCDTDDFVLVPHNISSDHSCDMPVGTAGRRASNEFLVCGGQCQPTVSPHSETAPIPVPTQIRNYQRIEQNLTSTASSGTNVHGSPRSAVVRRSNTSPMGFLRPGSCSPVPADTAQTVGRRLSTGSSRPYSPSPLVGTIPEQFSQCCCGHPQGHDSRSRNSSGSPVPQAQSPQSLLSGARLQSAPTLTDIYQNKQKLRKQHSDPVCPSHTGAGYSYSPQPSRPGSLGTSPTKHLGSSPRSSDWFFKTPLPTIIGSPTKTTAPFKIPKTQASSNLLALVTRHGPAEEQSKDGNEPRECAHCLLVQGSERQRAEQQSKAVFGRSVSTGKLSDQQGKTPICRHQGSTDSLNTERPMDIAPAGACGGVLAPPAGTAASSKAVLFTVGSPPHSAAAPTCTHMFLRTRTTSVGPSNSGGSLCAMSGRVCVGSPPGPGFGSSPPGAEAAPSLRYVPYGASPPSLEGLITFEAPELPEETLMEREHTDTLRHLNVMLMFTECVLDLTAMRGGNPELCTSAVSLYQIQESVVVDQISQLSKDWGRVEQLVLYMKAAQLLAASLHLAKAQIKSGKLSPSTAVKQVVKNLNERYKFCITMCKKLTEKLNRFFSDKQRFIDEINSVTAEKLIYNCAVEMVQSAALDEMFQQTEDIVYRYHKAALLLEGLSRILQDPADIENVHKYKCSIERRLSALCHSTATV", "conditions": "kinase ULK2; LanthaScreen Binding"}, "[9]": {"target": "various kinases (Homo sapiens, UniProt Q9Y616)", "conditions": "IRAK3"}, "[10]": {"target": "various kinases (Homo sapiens, UniProt O43353)", "sequence (O43353 whole entry)": "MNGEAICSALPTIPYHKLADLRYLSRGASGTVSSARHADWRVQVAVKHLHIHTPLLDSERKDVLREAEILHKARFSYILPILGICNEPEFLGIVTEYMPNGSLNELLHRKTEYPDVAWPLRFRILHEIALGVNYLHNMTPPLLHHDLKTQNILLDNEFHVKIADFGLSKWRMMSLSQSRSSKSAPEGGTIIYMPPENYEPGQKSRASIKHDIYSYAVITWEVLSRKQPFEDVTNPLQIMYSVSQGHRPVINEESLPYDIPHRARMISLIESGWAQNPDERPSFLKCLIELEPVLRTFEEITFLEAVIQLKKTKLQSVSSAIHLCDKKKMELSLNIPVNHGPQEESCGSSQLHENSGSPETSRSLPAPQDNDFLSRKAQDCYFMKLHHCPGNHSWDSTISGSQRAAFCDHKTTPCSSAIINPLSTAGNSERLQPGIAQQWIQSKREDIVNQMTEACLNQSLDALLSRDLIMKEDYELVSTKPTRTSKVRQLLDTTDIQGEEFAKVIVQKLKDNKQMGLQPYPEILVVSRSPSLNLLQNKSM", "conditions": "kinase RIPK2; LanthaScreen Binding"}, "[11]": {"target": "various kinases (Homo sapiens, UniProt Q16584)", "conditions": "MAP3K11 (MLK3)"}, "[12]": {"target": "various kinases (Homo sapiens, UniProt Q9HAZ1)", "conditions": "CLK4"}, "[13]": {"target": "various kinases (Homo sapiens, UniProt Q16832, N456S)", "conditions": "DDR2 N456S"}, "[14]": {"target": "various kinases (Homo sapiens, UniProt Q14004)", "conditions": "CDK13/cyclin K"}, "[15]": {"target": "various kinases (Homo sapiens, UniProt P52564)", "conditions": "MAP2K6 (MKK6)"}, "[16]": {"target": "various kinases (Homo sapiens, UniProt P10721, D820E)", "conditions": "KIT D820E"}, "[17]": {"target": "various kinases (Homo sapiens, UniProt Q9BYP7)", "sequence (Q9BYP7 whole entry)": "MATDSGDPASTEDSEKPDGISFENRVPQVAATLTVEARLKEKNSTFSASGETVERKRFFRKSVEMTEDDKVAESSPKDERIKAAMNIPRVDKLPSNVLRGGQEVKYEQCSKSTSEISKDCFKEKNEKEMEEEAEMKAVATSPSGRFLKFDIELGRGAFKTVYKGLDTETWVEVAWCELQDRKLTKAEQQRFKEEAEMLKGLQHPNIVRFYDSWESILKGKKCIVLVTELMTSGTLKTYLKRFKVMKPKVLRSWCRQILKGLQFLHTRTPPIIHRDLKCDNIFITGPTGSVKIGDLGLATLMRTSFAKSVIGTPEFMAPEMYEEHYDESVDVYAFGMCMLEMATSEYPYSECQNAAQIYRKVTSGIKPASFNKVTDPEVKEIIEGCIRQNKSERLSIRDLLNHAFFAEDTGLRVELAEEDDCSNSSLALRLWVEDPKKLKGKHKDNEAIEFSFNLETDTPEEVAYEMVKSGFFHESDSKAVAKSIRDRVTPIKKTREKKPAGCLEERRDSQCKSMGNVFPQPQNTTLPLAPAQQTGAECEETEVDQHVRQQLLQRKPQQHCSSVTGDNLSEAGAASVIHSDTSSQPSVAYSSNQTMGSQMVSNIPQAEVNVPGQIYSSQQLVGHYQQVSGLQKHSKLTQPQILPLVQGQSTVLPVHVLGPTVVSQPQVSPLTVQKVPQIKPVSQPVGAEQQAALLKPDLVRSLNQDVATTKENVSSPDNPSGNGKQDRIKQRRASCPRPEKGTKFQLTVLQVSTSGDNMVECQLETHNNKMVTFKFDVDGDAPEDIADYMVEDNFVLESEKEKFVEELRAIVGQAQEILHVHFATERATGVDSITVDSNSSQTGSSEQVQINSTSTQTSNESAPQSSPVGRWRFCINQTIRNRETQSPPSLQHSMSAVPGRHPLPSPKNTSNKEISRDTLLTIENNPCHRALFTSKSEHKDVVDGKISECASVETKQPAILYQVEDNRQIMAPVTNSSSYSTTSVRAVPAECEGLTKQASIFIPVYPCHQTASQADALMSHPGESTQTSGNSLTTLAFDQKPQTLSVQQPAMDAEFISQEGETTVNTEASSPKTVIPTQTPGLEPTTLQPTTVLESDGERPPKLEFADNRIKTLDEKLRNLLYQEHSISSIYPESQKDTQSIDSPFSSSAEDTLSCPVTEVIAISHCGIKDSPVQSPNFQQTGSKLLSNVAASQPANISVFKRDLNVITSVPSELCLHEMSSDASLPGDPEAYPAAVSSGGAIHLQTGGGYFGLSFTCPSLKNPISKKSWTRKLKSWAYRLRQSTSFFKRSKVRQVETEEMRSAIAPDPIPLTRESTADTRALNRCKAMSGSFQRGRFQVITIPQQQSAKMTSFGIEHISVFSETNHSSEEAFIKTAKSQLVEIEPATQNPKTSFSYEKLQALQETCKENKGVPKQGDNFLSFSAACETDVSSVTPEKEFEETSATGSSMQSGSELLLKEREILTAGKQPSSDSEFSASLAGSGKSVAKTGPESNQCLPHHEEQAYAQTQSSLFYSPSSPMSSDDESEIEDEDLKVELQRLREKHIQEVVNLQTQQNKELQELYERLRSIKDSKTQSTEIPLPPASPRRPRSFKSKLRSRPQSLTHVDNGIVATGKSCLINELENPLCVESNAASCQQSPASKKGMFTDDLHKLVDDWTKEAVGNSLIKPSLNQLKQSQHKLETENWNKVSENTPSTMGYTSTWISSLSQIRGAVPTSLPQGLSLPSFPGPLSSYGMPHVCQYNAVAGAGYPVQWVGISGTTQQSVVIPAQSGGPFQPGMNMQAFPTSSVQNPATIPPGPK", "conditions": "kinase WNK3; LanthaScreen Binding"}, "[18]": {"target": "various kinases (Homo sapiens, UniProt Q96GX5)", "conditions": "MASTL"}, "[19]": {"target": "various kinases (Homo sapiens, UniProt Q02750, S218D/S222D)", "sequence (Q02750 whole entry S218D/S222D)": "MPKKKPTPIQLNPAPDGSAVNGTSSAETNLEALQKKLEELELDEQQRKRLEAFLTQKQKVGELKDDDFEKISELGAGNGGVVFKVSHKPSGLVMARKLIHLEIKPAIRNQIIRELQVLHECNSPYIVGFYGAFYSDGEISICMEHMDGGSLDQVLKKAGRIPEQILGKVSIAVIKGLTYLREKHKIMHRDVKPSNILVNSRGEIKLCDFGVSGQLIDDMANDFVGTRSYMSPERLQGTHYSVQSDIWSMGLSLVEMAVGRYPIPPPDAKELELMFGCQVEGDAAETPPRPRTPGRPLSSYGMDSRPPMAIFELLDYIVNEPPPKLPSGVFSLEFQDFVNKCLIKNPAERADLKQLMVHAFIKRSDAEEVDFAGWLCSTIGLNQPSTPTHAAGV", "conditions": "MAP2K1 (MEK1) S218D S222D"}, "[20]": {"target": "T2, various kinases (Homo sapiens, UniProt O94768)", "T2 sequence (O94768 1-372)": "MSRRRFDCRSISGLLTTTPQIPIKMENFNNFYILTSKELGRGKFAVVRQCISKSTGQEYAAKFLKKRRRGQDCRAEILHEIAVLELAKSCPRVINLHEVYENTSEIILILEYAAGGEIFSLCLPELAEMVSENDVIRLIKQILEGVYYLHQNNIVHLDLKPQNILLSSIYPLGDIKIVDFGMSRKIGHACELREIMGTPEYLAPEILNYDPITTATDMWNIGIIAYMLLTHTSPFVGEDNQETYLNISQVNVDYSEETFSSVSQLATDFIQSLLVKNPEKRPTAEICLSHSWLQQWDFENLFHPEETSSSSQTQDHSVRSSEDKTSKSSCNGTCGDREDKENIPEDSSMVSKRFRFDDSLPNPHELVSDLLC", "conditions": "kinase STK17B (DRAK2); LanthaScreen Binding"}, "[21]": {"target": "various kinases (Homo sapiens, UniProt P15056, V600E)", "sequence (P15056 whole entry V600E)": "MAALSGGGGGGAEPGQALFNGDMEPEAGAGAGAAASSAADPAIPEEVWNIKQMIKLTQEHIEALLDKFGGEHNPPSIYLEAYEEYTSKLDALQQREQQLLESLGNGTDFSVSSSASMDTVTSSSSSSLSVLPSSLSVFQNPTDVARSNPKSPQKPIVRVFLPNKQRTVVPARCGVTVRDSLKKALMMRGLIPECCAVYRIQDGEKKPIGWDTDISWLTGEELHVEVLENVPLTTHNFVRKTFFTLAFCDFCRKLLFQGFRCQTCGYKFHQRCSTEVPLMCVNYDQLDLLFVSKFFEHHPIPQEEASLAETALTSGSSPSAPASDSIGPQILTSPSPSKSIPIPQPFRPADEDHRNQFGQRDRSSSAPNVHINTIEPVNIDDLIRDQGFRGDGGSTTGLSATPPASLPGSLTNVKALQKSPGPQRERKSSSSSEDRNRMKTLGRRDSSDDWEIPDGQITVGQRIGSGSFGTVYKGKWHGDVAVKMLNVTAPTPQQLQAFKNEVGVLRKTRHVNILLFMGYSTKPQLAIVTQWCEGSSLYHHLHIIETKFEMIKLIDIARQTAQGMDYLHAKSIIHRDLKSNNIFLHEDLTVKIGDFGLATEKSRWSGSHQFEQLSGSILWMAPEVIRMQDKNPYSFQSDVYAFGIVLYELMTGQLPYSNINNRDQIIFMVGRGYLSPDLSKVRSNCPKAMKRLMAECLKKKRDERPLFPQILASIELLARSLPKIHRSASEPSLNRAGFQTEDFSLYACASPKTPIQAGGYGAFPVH", "conditions": "BRAF V599E"}},
  "note": "Values joined by “and” are separate entries in the source; they are usually repeats but may differ in a detail not shown here. Identical values can stand only once.",
  "data": [
    {"compound": "COc1ccc2c(c1)[C@]1(C[C@H]1c1ccc3c(/C=C/c4ccc(CN5C[C@@H](C)O[C@@H](C)C5)cc4)n[nH]c3c1)C(=O)N2", "note": "[CFI-400945]", "values": [
      {"measurement": "% Inhibition", "setting": "[1]", "value": "45% and 35%"},
      {"measurement": "% Inhibition", "setting": "[2]", "value": 6, "unit": "%"},
      {"measurement": "% Inhibition", "setting": "[3]", "value": "72% and 73%"},
      {"measurement": "% Inhibition", "setting": "[4]", "value": "-1% and -4%"},
      {"measurement": "% Inhibition Average", "setting": "[5]", "value": 16, "unit": "%"},
      {"measurement": "% Inhibition Duplicate #1", "setting": "[5]", "value": 10, "unit": "%"},
      {"measurement": "% Inhibition Duplicate #2", "setting": "[5]", "value": 21, "unit": "%"},
      {"measurement": "% Inhibition", "setting": "[6]", "value": 8, "unit": "%"},
      {"measurement": "% Inhibition Average", "setting": "[7]", "value": 0, "unit": "%"},
      {"measurement": "% Inhibition Duplicate #1", "setting": "[7]", "value": -5, "unit": "%"},
      {"measurement": "% Inhibition Duplicate #2", "setting": "[7]", "value": 4, "unit": "%"},
      {"measurement": "% Inhibition Average", "setting": "[8]", "value": 6, "unit": "%"},
      {"measurement": "% Inhibition Duplicate #1", "setting": "[8]", "value": 2, "unit": "%"},
      {"measurement": "% Inhibition Duplicate #2", "setting": "[8]", "value": 11, "unit": "%"},
      {"measurement": "% Inhibition", "setting": "[9]", "value": 29, "unit": "%"},
      {"measurement": "% Inhibition Average", "setting": "[10]", "value": 3, "unit": "%"},
      {"measurement": "% Inhibition Duplicate #1", "setting": "[10]", "value": 3, "unit": "%"},
      {"measurement": "% Inhibition Duplicate #2", "setting": "[10]", "value": 3, "unit": "%"},
      {"measurement": "% Inhibition", "setting": "[11]", "value": "7% and -2%"},
      {"measurement": "% Inhibition", "setting": "[12]", "value": "1% and -2%"},
      {"measurement": "% Inhibition", "setting": "[13]", "value": "77% and 74%"},
      {"measurement": "% Inhibition", "setting": "[14]", "value": "-6% and 0%"},
      {"measurement": "% Inhibition", "setting": "[15]", "value": 14, "unit": "%"},
      {"measurement": "% Inhibition", "setting": "[16]", "value": "3% and 4%"},
      {"measurement": "% Inhibition Average", "setting": "[17]", "value": -2, "unit": "%"},
      {"measurement": "% Inhibition Duplicate #1", "setting": "[17]", "value": -2, "unit": "%"},
      {"measurement": "% Inhibition Duplicate #2", "setting": "[17]", "value": -1, "unit": "%"},
      {"measurement": "% Inhibition", "setting": "[18]", "value": "16% and 15%"},
      {"measurement": "% Inhibition", "setting": "[19]", "value": "4% and 10%"},
      {"measurement": "% Inhibition Average", "setting": "[20]", "value": 18, "unit": "%"},
      {"measurement": "% Inhibition Duplicate #1", "setting": "[20]", "value": 21, "unit": "%"},
      {"measurement": "% Inhibition Duplicate #2", "setting": "[20]", "value": 16, "unit": "%"},
      {"measurement": "% Inhibition", "setting": "[21]", "value": "9% and 7%"}
    ]}
  ]
}
